We go through two compounds from patent publication US11819526B2, “Lactobacillus Gasseri KBL697 strain and use thereof” (KoBioLabs, Inc., priority 2018, dated 2023).

One test deals with RBL-2H3 cell line. The test is described as follows: Degranulation (β-hexosaminidase, co-secreted with histamine) in RBL-2H3 cells. The format is cell-based. To be noted: RBL-2H3, IgE + antigen DNP-HAS; 120 μL bacterial culture supernatant or ketotifen 20 μg/mL; negative control (Siraganian buffer) = 1.0. The text has this:
It has been reported that, in an allergic reaction, histamine is expressed in tissues, causing an inflammatory reaction, and suppressing histamine secretion leads to alleviation of allergic symptoms by blocking the reaction by histamine. In the present invention, the alleviation of allergic reactions and the therapeutic effect thereon through inhibition of histamine secretion by KBL697 were further confirmed. Further, in order to confirm whether the effect for treating and preventing chronic allergies identified in Example 1 is an inherent attribute of Lactobacillus gasseri, or is a remarkable effect particularly in KBL697 among Lactobacillus gasseri, the ability to suppress histamine secretion was evaluated also for nine additional Lactobacillus gasseri strains in addition to KBL697. […]
To identify the activity of β-hexosaminidase, 25 μL of the supernatant collected in Example 2-3 was transferred to each well of a 96-well plate, and then 25 μL of substrate (p-nitrophenyl N-acetyl-D-glucosaminidase) was added to each, and followed by a reaction at 37° C. in the 5% CO2 incubator for 90 minutes. Then, 200 μL of stop solution (Na2CO3/NaHCO3) was added to stop the reaction and then absorbance was measured at 405 nm. […]

For test [1], the system named is C57BL6 mice with DSS-induced colitis. The test is described as follows: DSS-induced colitis in C57BL6 mice, KBL697 with or without infliximab. The format is in vivo, mouse. To be noted: administered alone. The text has this:
Infliximab (product name Remicade) is a therapeutic recombinant antibody drug used as an injection for autoimmune diseases such as rheumatoid arthritis, ankylosing spondylitis, ulcerative colitis, Crohn's disease in adults, Crohn's disease in children, psoriasis, and psoriatic arthritis. The purpose of this study was to confirm the effect of improving intestinal disease symptoms in vivo in the case of concurrent administration of KBL697 and infliximab.
After dividing C57BL6 mice into groups of eight mice, the mice were fed tap water with 2% DSS dissolved therein for 8 days (D0 to D7), inducing colitis. At the same time, 200 μL of PBS was orally administered to the mice in the control group for 14 days (D0 to D13) daily, while 200 μL of the KBL697 strain diluted in PBS to 1×10^10 CFU/mL was orally administered to the mice in the group dosed with KBL697 so that the amount of daily administration could be set at 2×10^9 CFU. […] During the 14 days in which colitis was induced by DSS, the body weight changes of the mice in the control group and each test group were measured daily, and on the 14th day after DSS was supplied (D14), mice were subjected to autopsies to measure the length of the colon.

Regarding `CN1CCC(=C2c3ccccc3CC(=O)c3sccc32)CC1` [Ketotifen, ketotifen], the “β-hexosaminidase (fold change)” value with RBL-2H3 cell line turned out to be 0.3861 fold change. On to “infliximab: therapeutic recombinant antibody drug (product name Remicade)”, for which the “width of decrease in the colon length compared to control group (DSS+PBS)” value in test [1] (2% DSS 8 days, KBL697 2×10^9 CFU oral daily, infliximab 5 mg/kg, D14, FIGS. 18A, 18B) was “significantly improved”. Further, in test [1] (2% DSS, when 14 days elapsed after the administration), the “effect on body weight decrease compared to control group” value is recorded as “significantly improved”.
